Data taken from the NIST ThermoML archive (doi:10.1016/j.jct.2014.02.016).

Legend:
[1] = heat capacity at constant pressure per volume; xn = mol fraction of the nth substance listed; details: 100 kPa, Liquid, DSC Calorimetry, x1 = 0.244
[2] = refractive index (other wavelength) (dimensionless); xn = mol fraction of the nth substance listed; details: 100 kPa, Liquid, Wavelength=632.8 nm, Angle minimization by sell rotation

CCCCCCCCCCCCC [tridecane] + COC(=O)OC
[1]
Details	heat capacity [J/K/m3]
303.5 K	2056000
303.6 K	2019000
303.7 K	1992000
303.8 K	1969000
303.9 K	1958000
304 K	1946000
304.2 K	1942000
304.6 K	1920000
305 K	1910000
306 K	1891000
307 K	1874000
308 K	1870000
309 K	1860000
310 K	1850000
311 K	1843000
312.1 K	1839000
313 K	1837000
315 K	1830000
316 K	1827000
317 K	1825000
318 K	1824000
319.01 K	1821000
320 K	1819000
321 K	1817000
322 K	1815000
323 K	1816000
324 K	1813000
325 K	1812000
326 K	1810000
327 K	1809000
328 K	1809000
329 K	1808000
330 K	1806000
331 K	1805000
332 K	1805000
333 K	1804000
334 K	1802000
335 K	1801000
336 K	1802000
337 K	1801000
338 K	1798000
339 K	1797000
340 K	1799000
341.01 K	1798000
342 K	1799000

[2]
Details	refractive index
293.35 K, x1 = 0.073	1.3756
293.35 K, x1 = 0.57	1.4085
294.57 K, x1 = 0.078	1.3756
294.57 K, x1 = 0.553	1.4072
295.8 K, x1 = 0.084	1.3756
295.8 K, x1 = 0.532	1.4057
296.97 K, x1 = 0.091	1.3757
296.97 K, x1 = 0.511	1.4042
298.06 K, x1 = 0.099	1.376
298.06 K, x1 = 0.492	1.4028
299.12 K, x1 = 0.108	1.3764
299.12 K, x1 = 0.467	1.4011
299.84 K, x1 = 0.115	1.3767
299.84 K, x1 = 0.452	1.4
300.52 K, x1 = 0.124	1.3772
300.52 K, x1 = 0.432	1.3987
301.09 K, x1 = 0.132	1.3777
301.09 K, x1 = 0.415	1.3975
301.5 K, x1 = 0.141	1.3783
301.5 K, x1 = 0.398	1.3964
301.8 K, x1 = 0.147	1.3787
301.8 K, x1 = 0.386	1.3956
302.21 K, x1 = 0.158	1.3795
302.21 K, x1 = 0.365	1.3942
302.36 K, x1 = 0.165	1.38
302.36 K, x1 = 0.356	1.3936
302.48 K, x1 = 0.17	1.3804
302.48 K, x1 = 0.348	1.3931
302.56 K, x1 = 0.176	1.3808
302.56 K, x1 = 0.341	1.3926
302.63 K, x1 = 0.18	1.3811
302.63 K, x1 = 0.335	1.3922
302.7 K, x1 = 0.184	1.3814
302.7 K, x1 = 0.329	1.3918
302.79 K, x1 = 0.191	1.382
302.79 K, x1 = 0.317	1.391
302.83 K, x1 = 0.195	1.3823
302.83 K, x1 = 0.311	1.3906
302.86 K, x1 = 0.202	1.3828
302.86 K, x1 = 0.303	1.3901
302.89 K, x1 = 0.206	1.3831
302.89 K, x1 = 0.297	1.3897
302.91 K, x1 = 0.211	1.3835
302.91 K, x1 = 0.291	1.3893
302.92 K, x1 = 0.214	1.3837
302.92 K, x1 = 0.289	1.3891
302.93 K, x1 = 0.218	1.384
302.93 K, x1 = 0.284	1.3888
302.94 K, x1 = 0.223	1.3844
302.94 K, x1 = 0.226	1.3846
302.94 K, x1 = 0.275	1.3882
302.94 K, x1 = 0.278	1.3884
304.39 K, x1 = 0.097	1.3728
304.39 K, x1 = 0.196	1.3818
304.39 K, x1 = 0.297	1.389
304.39 K, x1 = 0.401	1.3953
304.39 K, x1 = 0.497	1.4002
304.39 K, x1 = 0.583	1.404
304.39 K, x1 = 0.71	1.4094
304.39 K, x1 = 0.795	1.4126
304.39 K, x1 = 0.899	1.4163
